Assay results: patent US9096615B2, “Bridged bicyclic amino thiazine dioxide compounds as inhibitors of beta-secretase and methods of use thereof” (AMGEN INC., priority 2013, dated 2015)

Columns and labels:
Type in all cases: biochemical
[1] = biological target: T1, Cathepsin D (Cat D) (Homo sapiens, UniProt P07339); experiment: In vitro enzymatic Cathepsin D (Cat D) FRET assay; conditions: average IC50; first procedure; read-out: CatD IC50
T1 construct: made in house; host or cells: CHO cells
In short: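 Fluorescence (500 nm excitation, 580 nm emission) was measured after Tris quench of a 1 h cleavage of 20 nM quenched peptide substrate. Before that, 9 nM CHO-expressed human Cat D sat with compound for 1 h at pH 3.5 (0.05 M citrate, 5 mM CHAPS, 10% DMSO final).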

[2] = biological target: T2, human Bace2 protein (Homo sapiens, UniProt Q9Y5Z0); experiment: In vitro enzymatic BACE2 FRET assay; conditions: average IC50; read-out: BACE2 Enzyme assay IC50
T2 construct: V5 (C); 6-His (C)
T2 sequence (Q9Y5Z0 63-518): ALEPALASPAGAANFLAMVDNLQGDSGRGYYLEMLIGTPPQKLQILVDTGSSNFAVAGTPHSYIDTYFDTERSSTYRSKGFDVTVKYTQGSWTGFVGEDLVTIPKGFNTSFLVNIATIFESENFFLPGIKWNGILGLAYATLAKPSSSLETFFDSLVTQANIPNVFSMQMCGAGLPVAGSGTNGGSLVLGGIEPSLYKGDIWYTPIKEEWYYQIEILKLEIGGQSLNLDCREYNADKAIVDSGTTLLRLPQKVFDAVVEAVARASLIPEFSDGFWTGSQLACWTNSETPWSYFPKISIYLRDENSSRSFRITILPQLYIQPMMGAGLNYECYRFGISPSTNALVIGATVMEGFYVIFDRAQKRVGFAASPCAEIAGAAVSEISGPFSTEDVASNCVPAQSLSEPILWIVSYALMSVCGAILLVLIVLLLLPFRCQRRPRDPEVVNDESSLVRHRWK
In short: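 Human Bace2 with C-terminal V5/6-His tag (0.2 nM) pre-incubated 1 h with inhibitor in 0.05 M acetate pH 4.2, 10% DMSO, 100 uM genapol; reaction started with 50 nM FRET peptide substrate, run 1 h. Stopped with Tris to neutral pH; fluorescence increase from substrate cleavage measured.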

[3] = biological target: BACE1 (Homo sapiens, UniProt P56817); experiment: In vitro enzymatic BACE FRET assay; conditions: average IC50; read-out: BACE1 Enzyme assay IC50
Chain of BACE1 (P56817 46-501, species assumed): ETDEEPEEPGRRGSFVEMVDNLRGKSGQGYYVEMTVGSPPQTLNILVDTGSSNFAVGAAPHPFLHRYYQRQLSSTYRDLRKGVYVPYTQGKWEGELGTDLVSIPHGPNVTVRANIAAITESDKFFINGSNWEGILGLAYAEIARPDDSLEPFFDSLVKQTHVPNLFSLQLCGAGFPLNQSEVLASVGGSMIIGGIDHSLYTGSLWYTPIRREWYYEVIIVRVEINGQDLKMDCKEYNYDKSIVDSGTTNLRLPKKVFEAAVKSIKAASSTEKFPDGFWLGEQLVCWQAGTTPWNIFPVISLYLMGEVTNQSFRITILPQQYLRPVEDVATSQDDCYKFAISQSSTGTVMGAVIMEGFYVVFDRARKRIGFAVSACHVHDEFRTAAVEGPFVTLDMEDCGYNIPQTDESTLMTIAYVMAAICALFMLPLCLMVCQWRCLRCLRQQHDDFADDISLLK
In short: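 Fluorescence (excitation 488 nm, […]) from cleavage of quenched peptide substrate (50 nM), reaction run 1 h after 1 h enzyme–inhibitor pre-incubation, then neutralised with Tris. Conditions: 0.2 nM enzyme, pH 4.2 acetate 0.05 M, 10% DMSO final, 100 uM genapol.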

T1 sequence (P07339 65-412, species assumed): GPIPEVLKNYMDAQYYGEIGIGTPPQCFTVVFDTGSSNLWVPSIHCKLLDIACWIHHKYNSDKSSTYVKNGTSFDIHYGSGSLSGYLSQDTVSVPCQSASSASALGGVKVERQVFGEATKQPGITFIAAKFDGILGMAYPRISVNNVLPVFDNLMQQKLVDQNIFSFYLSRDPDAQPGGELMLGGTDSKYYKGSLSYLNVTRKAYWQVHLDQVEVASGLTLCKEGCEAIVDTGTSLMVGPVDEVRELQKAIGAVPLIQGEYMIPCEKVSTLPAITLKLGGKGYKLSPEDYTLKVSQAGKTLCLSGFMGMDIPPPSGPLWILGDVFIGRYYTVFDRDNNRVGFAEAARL

SMILES	IC50 [1] [µM]	IC50 [2] [µM]	IC50 [3] [µM]
Cc1cc(C#N)cnc1C(=O)Nc1ccc(F)c([C@@]2(C)N=C(N)[C@@]3(CF)CC[C@@H]2S3(=O)=O)c1 [Example 96, N-(3-((1S,2R,5R)-4-amino-5-(fluoromethyl)-2-methyl-8,8-dioxido-8-thia-3-azabicyclo[3.2.1]oct-3-en-2-yl)-4-fluorophenyl)-5-cyano-3-methyl-2-pyridinecarboxamide]	733	0.001	0.002
COc1cnc(C(=O)Nc2ccc(F)c([C@@]3(C)N=C(N)[C@@]4(C)CC[C@@H]3S4(=O)=O)c2)cn1 [Example 61, N-(3-((1S,2R,5R)-4-amino-2,5-dimethyl-8,8-dioxido-8-thia-3-azabicyclo[3.2.1]oct-3-en-2-yl)-4-fluorophenyl)-5-methoxy-2-pyrazinecarboxamide]	2500	0.007	0.005
Cc1cc(Cl)cnc1C(=O)Nc1ccc(F)c([C@@]2(C)N=C(N)[C@@]3(CF)CC[C@@H]2S3(=O)=O)c1 [Example 88, N-(3-((1S,2R,5R)-4-amino-5-(fluoromethyl)-2-methyl-8,8-dioxido-8-thia-3-azabicyclo[3.2.1]oct-3-en-2-yl)-4-fluorophenyl)-5-chloro-3-methyl-2-pyridinecarboxamide]	685	0.0008	0.003
